Tests used:
[1] = target: T1, serotonine transporter (SERT) receptor (Homo sapiens, UniProt P31645); experiment: Binding assay SERT (h), [3H]imipramine, CHO cells; conditions: read-out: SERT [%]
T1 construct: expressed in transfected cells; host or cells: CHO cells
How it was run: (§1)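 Binding read by scintillation counting. Non-specific component defined by excess unlabelled ligand and removed from total counts. Compounds at 1×10^−6 M.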

sigma σ receptor = experiment: Binding assay σ (non-selective), [3H]DTG, rat cerebral cortex; conditions: percent inhibition of control specific binding; compounds tested at 1×10^−6 M
Description: (§2) The specific ligand binding to the receptors is defined as the difference between the total binding and the nonspecific binding determined in the presence of an excess of so unlabelled ligand.
(§3) The specific Ligand binding to the receptor is defined as the difference between total and non-specific binding determined in the presence of an excess of unlabelled ligand. The compounds were tested at a concentration of 1×10^−6 M, and scintillation counting was the method of detection of ligand binding.

adrenergic α1 receptor = experiment: Binding assay α1 (non-selective), [3H]prazosin, rat cerebral cortex; conditions: percent inhibition of control specific binding; compounds tested at 1×10^−6 M
How it was run: as §1

muscarinic M3 receptor = target: T2, muscarinic M3 receptor (Homo sapiens, UniProt P20309); experiment: Binding assay M3 (h), [3H]4-DAMP, CHO cells; conditions: read-out: M3 [%]
T2 construct: expressed in transfected cells; host or cells: CHO cells
T2 sequence (P20309 whole entry): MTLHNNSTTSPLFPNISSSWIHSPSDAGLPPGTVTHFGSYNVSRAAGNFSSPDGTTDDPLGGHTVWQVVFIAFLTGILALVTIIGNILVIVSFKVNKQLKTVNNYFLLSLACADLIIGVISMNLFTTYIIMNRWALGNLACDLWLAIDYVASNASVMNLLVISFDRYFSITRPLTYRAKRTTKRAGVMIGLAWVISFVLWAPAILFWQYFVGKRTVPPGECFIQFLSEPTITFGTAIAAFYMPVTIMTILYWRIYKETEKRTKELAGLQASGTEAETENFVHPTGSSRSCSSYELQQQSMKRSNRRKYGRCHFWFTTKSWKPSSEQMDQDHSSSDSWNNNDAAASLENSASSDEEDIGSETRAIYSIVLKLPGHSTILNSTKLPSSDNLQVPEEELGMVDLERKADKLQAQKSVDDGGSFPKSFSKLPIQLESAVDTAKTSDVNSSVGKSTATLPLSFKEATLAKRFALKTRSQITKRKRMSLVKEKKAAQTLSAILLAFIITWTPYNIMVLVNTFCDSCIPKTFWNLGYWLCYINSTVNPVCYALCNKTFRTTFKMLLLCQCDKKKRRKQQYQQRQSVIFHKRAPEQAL
Description: as §2, §3

[2] = target: T3, serotoninergic receptor 5-HT2C (Homo sapiens, UniProt P28335); experiment: Binding assay 5-HT2C (h), [3H]mesulergine, HEK-293 cells; conditions: read-out: 5-HT2C [%]
T3 construct: expressed in transfected cells; host or cells: HEK-293 cells
T3 sequence (P28335 33-458): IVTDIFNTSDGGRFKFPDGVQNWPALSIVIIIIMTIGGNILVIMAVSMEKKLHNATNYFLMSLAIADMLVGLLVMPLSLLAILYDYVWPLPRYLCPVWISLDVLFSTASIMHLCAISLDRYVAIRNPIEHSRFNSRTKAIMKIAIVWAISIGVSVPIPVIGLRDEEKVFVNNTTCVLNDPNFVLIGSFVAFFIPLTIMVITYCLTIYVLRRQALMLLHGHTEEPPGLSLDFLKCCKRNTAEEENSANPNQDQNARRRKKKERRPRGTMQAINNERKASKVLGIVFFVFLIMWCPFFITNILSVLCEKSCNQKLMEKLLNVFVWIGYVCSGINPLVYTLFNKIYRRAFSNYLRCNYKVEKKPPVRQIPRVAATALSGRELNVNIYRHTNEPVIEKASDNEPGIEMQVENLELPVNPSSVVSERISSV
Description: as §2, §3

dopaminergic D3 receptor = dopaminergic D3 receptor (Homo sapiens, UniProt P35462); experiment: Binding assay D3 (h), [3H]methyl-spiperone, CHO cells; design: expressed in transfected cells; host or cells: CHO cells; conditions: read-out: D3 [%]
Sequence of dopaminergic D3 receptor (P35462 whole entry): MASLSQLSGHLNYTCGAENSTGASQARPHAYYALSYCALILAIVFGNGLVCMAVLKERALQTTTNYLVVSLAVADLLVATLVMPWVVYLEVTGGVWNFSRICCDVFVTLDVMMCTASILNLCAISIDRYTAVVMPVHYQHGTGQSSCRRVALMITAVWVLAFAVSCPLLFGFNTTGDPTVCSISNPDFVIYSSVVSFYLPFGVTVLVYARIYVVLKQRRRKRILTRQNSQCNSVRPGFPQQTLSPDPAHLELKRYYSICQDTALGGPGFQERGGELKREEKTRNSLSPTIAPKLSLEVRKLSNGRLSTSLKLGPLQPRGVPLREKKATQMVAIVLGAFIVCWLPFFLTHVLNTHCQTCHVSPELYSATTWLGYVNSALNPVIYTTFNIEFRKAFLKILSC
How it was run: as §1

[3] = target: serotoninergic 5-HT6 receptor (Homo sapiens, UniProt P50406); experiment: Binding assay 5-HT6 (h), [3H]LSD, CHO cells; design: expressed in transfected cells; host or cells: CHO cells; conditions: read-out: 5-HT6
Sequence of serotoninergic 5-HT6 receptor (P50406 whole entry): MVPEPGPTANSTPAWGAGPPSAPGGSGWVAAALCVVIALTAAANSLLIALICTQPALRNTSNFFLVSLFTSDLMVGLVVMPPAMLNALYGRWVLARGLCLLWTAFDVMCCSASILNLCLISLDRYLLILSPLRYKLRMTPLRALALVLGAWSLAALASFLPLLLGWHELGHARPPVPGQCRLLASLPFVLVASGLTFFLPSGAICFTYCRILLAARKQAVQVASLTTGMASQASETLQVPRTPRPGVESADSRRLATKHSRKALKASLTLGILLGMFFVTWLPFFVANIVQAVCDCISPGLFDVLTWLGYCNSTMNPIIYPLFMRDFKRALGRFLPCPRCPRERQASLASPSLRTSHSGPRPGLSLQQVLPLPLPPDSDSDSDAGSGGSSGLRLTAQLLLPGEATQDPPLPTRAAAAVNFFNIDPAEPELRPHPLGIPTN
How it was run: as §1

[4] = target: serotoninergic 5-HT7 receptor (Homo sapiens, UniProt P34969); experiment: Binding assay 5-HT7 (h), [3H]LSD, CHO cells; design: expressed in transfected cells; host or cells: CHO cells; conditions: read-out: 5-HT7
Sequence of serotoninergic 5-HT7 receptor (P34969 whole entry): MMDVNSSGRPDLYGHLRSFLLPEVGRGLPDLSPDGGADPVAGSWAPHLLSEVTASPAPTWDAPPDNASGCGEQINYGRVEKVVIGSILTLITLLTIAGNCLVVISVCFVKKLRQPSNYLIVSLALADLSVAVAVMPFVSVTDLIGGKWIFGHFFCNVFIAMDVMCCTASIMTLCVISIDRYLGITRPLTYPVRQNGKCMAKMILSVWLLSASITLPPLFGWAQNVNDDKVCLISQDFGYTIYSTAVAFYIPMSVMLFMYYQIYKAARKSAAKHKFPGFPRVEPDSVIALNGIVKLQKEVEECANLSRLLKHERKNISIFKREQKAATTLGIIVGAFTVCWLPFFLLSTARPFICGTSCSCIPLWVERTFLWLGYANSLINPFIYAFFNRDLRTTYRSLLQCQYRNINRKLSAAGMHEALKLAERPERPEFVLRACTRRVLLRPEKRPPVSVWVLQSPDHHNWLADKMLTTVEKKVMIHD
How it was run: as §1

adrenergic α2C receptor = target: T4, adrenergic α2C receptor (Homo sapiens, UniProt P18825); experiment: Binding assay α2C (h), [3H]RX 821002, CHO cells; design: expressed in transfected cells; host or cells: CHO cells; conditions: read-out: α2C [%]
T4 sequence (P18825 1-462): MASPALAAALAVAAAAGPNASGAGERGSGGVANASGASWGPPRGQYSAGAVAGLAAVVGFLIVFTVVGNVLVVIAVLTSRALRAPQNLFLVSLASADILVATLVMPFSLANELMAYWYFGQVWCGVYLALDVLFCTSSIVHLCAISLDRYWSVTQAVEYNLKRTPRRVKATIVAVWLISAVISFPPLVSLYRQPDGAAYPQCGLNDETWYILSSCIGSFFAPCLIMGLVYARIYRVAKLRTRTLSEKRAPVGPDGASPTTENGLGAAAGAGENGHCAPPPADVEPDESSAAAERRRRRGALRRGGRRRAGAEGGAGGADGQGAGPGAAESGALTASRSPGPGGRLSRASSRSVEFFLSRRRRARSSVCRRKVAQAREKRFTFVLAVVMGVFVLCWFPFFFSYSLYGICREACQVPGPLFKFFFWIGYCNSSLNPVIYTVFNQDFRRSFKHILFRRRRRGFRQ
Description: as §2, §3

dopaminergic D2 receptor = dopaminergic D2 receptor (Homo sapiens, UniProt P14416); experiment: Binding assay D2S (h), [3H]methyl-spiperone, HEK-293 cells; design: expressed in transfected cells; host or cells: HEK-293 cells; conditions: read-out: D2 [%]
Sequence of dopaminergic D2 receptor (P14416 1-414 isoform P14416-2): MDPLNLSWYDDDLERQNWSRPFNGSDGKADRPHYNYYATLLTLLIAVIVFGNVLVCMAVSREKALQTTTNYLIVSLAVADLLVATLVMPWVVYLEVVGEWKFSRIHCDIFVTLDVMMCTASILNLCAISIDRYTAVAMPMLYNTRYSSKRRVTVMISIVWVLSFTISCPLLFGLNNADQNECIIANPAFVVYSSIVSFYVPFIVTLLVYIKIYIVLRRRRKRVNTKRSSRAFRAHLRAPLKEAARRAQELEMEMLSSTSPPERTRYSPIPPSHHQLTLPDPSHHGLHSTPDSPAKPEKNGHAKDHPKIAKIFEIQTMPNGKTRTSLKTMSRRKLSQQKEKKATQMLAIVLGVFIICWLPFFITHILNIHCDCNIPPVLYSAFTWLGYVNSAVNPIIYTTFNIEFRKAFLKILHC
How it was run: as §1

[5] = target: T5, serotoninergic 5-HT1A receptor (Homo sapiens, UniProt P08908); experiment: Binding assay 5-HT1A (h), [3H]8-OH-DPAT, HEK-293 cells; design: expressed in transfected cells; host or cells: HEK-293 cells; conditions: read-out: 5-HT1A
T5 sequence (P08908 1-422): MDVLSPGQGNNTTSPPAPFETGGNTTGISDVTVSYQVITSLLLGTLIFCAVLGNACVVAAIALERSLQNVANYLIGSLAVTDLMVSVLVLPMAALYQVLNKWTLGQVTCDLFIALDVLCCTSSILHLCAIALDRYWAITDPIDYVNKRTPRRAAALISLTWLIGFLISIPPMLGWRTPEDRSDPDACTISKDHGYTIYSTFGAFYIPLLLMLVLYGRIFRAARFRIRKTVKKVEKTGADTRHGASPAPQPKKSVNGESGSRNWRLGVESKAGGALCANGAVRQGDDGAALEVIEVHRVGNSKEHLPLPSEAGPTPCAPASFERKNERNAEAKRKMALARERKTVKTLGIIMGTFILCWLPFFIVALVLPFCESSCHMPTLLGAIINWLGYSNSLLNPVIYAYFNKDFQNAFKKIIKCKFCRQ
How it was run: as §1

[6] = target: serotoninergic 5-HT2A receptor (Homo sapiens, UniProt P28223); experiment: Binding assay 5-HT2A (h), [3H]ketanserin, HEK-293 cells; design: expressed in transfected cells; host or cells: HEK-293 cells; conditions: read-out: 5-HT2A
Sequence of serotoninergic 5-HT2A receptor (P28223 whole entry): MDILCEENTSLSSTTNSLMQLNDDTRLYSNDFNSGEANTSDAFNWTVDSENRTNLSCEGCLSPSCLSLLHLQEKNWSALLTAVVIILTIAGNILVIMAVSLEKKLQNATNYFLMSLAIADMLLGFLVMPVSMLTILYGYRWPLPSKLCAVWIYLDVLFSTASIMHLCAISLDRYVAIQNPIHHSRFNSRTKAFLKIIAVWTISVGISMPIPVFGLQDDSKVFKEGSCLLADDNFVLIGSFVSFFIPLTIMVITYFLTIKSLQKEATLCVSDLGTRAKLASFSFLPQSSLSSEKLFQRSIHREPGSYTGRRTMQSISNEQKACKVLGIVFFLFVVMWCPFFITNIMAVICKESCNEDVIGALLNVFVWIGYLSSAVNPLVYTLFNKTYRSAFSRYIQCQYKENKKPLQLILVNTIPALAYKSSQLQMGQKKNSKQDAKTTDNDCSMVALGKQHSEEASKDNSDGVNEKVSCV
How it was run: as §1

[7] = target: histaminergic H1 receptor (Homo sapiens, UniProt P35367); experiment: Binding assay H1 (h), [3H]pyrilamine, HEK-293 cells; design: expressed in transfected cells; host or cells: HEK-293 cells; conditions: read-out: H1 [%]
Sequence of histaminergic H1 receptor (P35367 whole entry): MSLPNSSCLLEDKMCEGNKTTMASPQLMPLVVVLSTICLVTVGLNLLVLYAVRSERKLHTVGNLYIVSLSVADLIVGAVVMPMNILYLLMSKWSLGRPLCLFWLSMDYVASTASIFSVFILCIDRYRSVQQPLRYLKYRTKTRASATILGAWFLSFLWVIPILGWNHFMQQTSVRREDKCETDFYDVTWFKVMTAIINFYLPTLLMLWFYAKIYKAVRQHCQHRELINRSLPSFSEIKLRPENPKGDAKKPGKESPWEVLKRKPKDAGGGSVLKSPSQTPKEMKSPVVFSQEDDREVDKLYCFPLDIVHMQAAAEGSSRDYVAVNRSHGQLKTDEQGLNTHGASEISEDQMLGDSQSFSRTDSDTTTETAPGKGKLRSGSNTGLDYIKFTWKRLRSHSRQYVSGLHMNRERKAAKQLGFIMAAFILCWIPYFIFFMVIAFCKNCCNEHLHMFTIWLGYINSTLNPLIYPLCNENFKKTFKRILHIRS
Description: as §2, §3

T1 sequence (P31645 whole entry): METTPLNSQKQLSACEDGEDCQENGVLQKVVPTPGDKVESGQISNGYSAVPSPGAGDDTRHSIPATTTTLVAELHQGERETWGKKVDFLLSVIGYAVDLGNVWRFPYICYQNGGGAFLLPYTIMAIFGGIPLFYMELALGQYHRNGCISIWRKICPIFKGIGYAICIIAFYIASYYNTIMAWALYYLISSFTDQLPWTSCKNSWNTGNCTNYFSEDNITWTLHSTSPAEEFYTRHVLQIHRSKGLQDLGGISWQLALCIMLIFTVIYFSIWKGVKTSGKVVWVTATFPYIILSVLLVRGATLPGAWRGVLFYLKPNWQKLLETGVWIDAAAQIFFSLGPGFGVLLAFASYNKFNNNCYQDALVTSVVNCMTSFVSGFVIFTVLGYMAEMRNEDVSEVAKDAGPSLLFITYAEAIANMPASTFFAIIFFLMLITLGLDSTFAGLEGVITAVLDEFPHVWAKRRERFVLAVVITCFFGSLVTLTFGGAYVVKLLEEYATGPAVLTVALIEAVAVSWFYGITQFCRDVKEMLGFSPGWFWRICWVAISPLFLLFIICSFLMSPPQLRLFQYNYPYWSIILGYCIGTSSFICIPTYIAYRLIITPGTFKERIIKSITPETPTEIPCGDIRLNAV

Structure (SMILES)	inhibition at 1 µM [1] [%]	σ [%] (sigma σ receptor)	α1 [%] (adrenergic α1 receptor)	inhibition at 1 µM (muscarinic M3 receptor) [%]	inhibition at 1 µM [2] [%]	inhibition at 1 µM (dopaminergic D3 receptor) [%]	inhibition at 1 µM [3] [%]	inhibition at 1 µM [4] [%]	inhibition at 1 µM (adrenergic α2C receptor) [%]	inhibition at 1 µM (dopaminergic D2 receptor) [%]	inhibition at 1 µM [5] [%]	inhibition at 1 µM [6] [%]	inhibition at 1 µM [7] [%]
Cc1[nH]c2ccc(Cl)cc2c1C1=CCN(CCCCNS(=O)(=O)c2ccc(Cl)cc2)CC1 [Compound 58, 4-Chloro-N-{4-[4-(5-chloro-2-methyl-1H-indol-3-yl)-3,6-dihydropyridin-1(2H)-yl]butyl}benzenesulphonamide]	78	34	76	11	21	100	84	46	80	97	94	51	75
O=S(=O)(NCCCCN1CCN(c2nsc3ccccc23)CC1)c1ccc(F)c(Cl)c1 [Compound 63, N-[4-[4-(1,2-Benzothiazol-3-yl)piperazin-1-yl]butyl]-3-chloro-4-fluorobenzenesulphonamide]	53	54	99	11	95	103	89	99	98	99	97	100	99
O=S(=O)(NCCCN1CCN(c2nsc3ccccc23)CC1)c1ccc(F)c(Cl)c1 [Compound 64, N-[3-[4-(1,2-Benzothiazol-3-yl)piperazin-1-yl]propyl]-3-chloro-4-fluorobenzenesulphonamide]	80	54	93	7	–	98	99	99	100	98	99	101	98
Cc1c(S(=O)(=O)NCCCN2CCN(c3nsc4ccccc34)CC2)sc2ccc(F)cc12 [Compound 66, N-[3-[4-(1,2-Benzothiazol-3-yl)piperazin-1-yl]propyl]-5-fluoro-3-methylbenzothiophene-2-sulphonamide]	93	61	93	10	86	101	95	101	103	101	98	101	99
O=S(=O)(NCCCN1CCN(c2nsc3ccccc23)CC1)c1cccc(Cl)c1 [Compound 70, N-[3-[4-(1,2-Benzothiazol-3-yl)piperazin-1-yl]propyl]-3-chlorobenzenesulphonamide]	82	64	96	25	88	101	99	100	100	99	99	101	97
N#Cc1cccc(S(=O)(=O)NCCCN2CCN(c3nsc4ccccc34)CC2)c1 [Compound 74, N-[3-[4-(1,2-Benzothiazol-3-yl)piperazin-1-yl]propyl]-3-cyanobenzenesulphonamide]	79	34	94	17	78	92	95	97	92	93	99	102	90
O=S(=O)(NCCCN1CCN(c2nsc3ccccc23)CC1)c1ccc(Cl)c(Cl)c1 [Compound 251, N-[3-[4-(1,2-Benzothiazol-3-yl)piperazin-1-yl]propyl]-3,4-dichlorobenzenesulphonamide]	87	61	95	8	83	97	99	99	96	97	99	101	–
O=S(=O)(NCCCN1CCC(c2noc3cc(F)ccc23)CC1)c1cc2ccc(Cl)cc2s1 [Compound 347, 6-Chloro-N-[3-[4-(6-fluoro-1,2-benzoxazol-3-yl)piperidin-1-yl]propyl]benzothiophene-2-sulphonamide]	33	–	–	12	99	103	99	100	110	103	92	101	98
O=c1[nH]c2cccc(N3CCN(CCCNS(=O)(=O)c4ccc(Cl)cc4)CC3)c2[nH]1 [Compound 425, 4-chloro-N-[3-[4-(2-oxo-1,3-dihydrobenzimidazol-4-yl)piperazin-1-yl]propyl]-benzenesulphonamide]	10	–	–	2	24	104	5	95	59	91	98	25	6
